We go through 2 compounds from patent US7897770B2 (General Electric Company, priority 2007, dated 2011).

For this assay, the target named is T1, VMAT-2 (Homo sapiens, UniProt Q05940).
T1 construct: Novascreen Biosciences Corporation (contract assay provider) protocol Cat. No. 100-0751
In words: VMAT-2 binding affinity measurement, Novascreen protocol Cat. No. 100-0751. The settings on record: for Ki: VMAT-2 binding affinity. How it is done:
VMAT-2 binding affinity measurements were carried out by Novascreen Biosciences Corporation (Hanover, Md., USA) using protocol Cat. No. 100-0751. Novascreen, Inc. is a commercial provider of biological assays for the pharmaceutical industry.

T1 sequence (Q05940 whole entry, species assumed): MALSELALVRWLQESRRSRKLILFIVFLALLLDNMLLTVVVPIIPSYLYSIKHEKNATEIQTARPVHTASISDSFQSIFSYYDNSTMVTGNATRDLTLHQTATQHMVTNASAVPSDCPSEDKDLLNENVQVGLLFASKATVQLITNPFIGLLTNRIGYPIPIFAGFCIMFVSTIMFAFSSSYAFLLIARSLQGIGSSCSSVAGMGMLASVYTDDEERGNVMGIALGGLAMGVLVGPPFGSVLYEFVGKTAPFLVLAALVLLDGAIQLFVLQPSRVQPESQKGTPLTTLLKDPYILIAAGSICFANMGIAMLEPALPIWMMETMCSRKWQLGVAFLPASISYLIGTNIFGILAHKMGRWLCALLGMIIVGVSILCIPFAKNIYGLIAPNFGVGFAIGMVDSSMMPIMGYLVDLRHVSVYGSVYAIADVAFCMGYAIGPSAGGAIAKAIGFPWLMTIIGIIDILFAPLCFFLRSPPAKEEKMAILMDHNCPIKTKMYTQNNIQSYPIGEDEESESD

Take `COc1cc2c(cc1OC)[C@H]1C[C@@H](OCCF)[C@H](CC(C)C)CN1CC2` [Compound 22]: the “VMAT-2 binding affinity, in words” value is “very high binding affinity” and affinity was put at a Ki of 3.2 nM.

Turning to `COc1cc2c(cc1OC)[C@H]1C[C@@H](OCCCF)[C@H](CC(C)C)CN1CC2` [Compound 23], the “VMAT-2 binding affinity, in words” value is given as “very high binding affinity” and the Ki (in general, a measure of affinity in units of concentration, obtained from inhibition or displacement) is 6.4 nM.
